Several values for one entry are separate records, joined by “and”; a condition that tells them apart may be missing. Identical values can stand only once.
Target: T1, human P2X4 (Homo sapiens, UniProt Q99571)
T1 sequence (Q99571 1-388): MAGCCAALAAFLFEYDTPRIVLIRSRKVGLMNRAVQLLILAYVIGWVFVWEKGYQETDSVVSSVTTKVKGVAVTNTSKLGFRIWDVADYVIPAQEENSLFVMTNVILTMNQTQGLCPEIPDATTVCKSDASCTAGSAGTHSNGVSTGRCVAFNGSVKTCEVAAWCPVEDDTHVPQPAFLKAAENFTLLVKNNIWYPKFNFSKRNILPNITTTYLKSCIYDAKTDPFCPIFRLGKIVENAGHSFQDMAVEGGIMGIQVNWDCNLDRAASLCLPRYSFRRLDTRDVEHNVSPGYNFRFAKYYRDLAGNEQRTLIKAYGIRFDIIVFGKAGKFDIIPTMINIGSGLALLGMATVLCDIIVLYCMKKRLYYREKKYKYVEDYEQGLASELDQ
Assay: Human P2X4 HEK Cell FLIPR Assay
Assay type: cell-based
Conditions: agonist Bz-ATP at EC80; for Emax: HEK293, HEK293 cells, percentage of maximal inhibition, read-out: Human P2X4 HEK Cells (FLIPR Assay) avg Efficacy [%]; for IC50: HEK293 cells, individual values listed where some fall outside detection range
Outline: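 Calcium flux read by FLIPR for 120 sec after Bz-ATP challenge at EC80 (established each assay day), following 30 min room-temperature compound preincubation in dye-loaded stable human P2X4 HEK293 cells. Peak RFU over basal normalized to agonist control; IC50, maximal inhibition and Hill coefficient from triplicate means.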

Structure (SMILES) | Emax [%] | IC50
CC(C)(C)c1nn(-c2ccc(NC(=O)Cc3ccccc3Cl)cc2S(N)(=O)=O)cc1C#N [Example 539, N-[4-(3-tert-Butyl-4-cyano-1H-pyrazol-1-yl)-3-sulfamoylphenyl]-2-(2-chlorophenyl)acetamide] | 103 | 127 nM
N#Cc1cnn(-c2ccc(NC(=O)Cc3cc(F)ccc3Cl)cc2S(N)(=O)=O)c1 [Example 214, 2-(2-Chloro-5-fluorophenyl)-N-[4-(4-cyano-1H-pyrazol-1-yl)-3-sulfamoylphenyl]-acetamide] | 86 | 36 nM
Cc1ccc(CC(=O)Nc2ccc(-n3cc(C(F)(F)F)nn3)c(S(N)(=O)=O)c2)cc1 [Example 409, 2-(4-Methylphenyl)-N-{3-sulfamoyl-4-[4-(trifluoromethyl)-1H-1,2,3-triazol-1-yl]phenyl}acetamide] | 85 | 445 nM
NS(=O)(=O)c1cc(NC(=O)Cc2ccccc2F)ccc1-c1cncc(F)c1 [Example 362, 2-(2-Fluorophenyl)-N-[4-(5-fluoropyridin-3-yl)-3-sulfamoylphenyl]acetamide] | 78 | 102 nM
NS(=O)(=O)c1cc(NC(=O)Cc2ccccc2F)ccc1-n1cc(Br)cn1 [Example 63, N-[4-(4-Bromo-1H-pyrazol-1-yl)-3-sulfamoylphenyl]-2-(2-fluorophenyl)acetamide] | 87 | 130 nM
NS(=O)(=O)c1cc(NC(=O)Cc2cccc(Cl)c2)ccc1-n1cc(Cl)cn1 [Example 82, 2-(3-Chlorophenyl)-N-[4-(4-chloro-1H-pyrazol-1-yl)-3-sulfamoylphenyl]acetamide] | 36 | > 25000 nM
CCOC(=O)c1cnn(-c2ccc(NC(=O)Cc3ccccc3F)cc2S(N)(=O)=O)c1 [Example 236, Ethyl 1-(4-{[(2-fluorophenyl)acetyl]amino}-2-sulfamoylphenyl)-1H-pyrazole-4-carboxylate] | 54 | 36 nM
NS(=O)(=O)c1cc(NC(=O)Cc2ccccc2Cl)ccc1-n1cc(-c2cccnc2)cn1 [Example 403, 2-(2-Chlorophenyl)-N-{4-[4-(pyridin-3-yl)-1H-pyrazol-1-yl]-3-sulfamoylphenyl}acetamide] | 88 | 16 nM
NS(=O)(=O)c1cc(NC(=O)Cc2cccc(C(F)(F)F)c2Cl)c(C(F)(F)F)cc1-n1cc(C(F)(F)F)cn1 [Example 533, 2-[2-Chloro-3-(trifluoromethyl)phenyl]-N-{5-sulfamoyl-2-(trifluoromethyl)-4-[4-(trifluoromethyl)-1H-pyrazol-1-yl]phenyl}acetamide] | 26 | > 25000 nM
NS(=O)(=O)c1cc(NC(=O)Cc2ccc(C(F)F)cc2)ccc1-n1cnc(C(F)(F)F)n1 [Example 60, 2-[4-(Difluoromethyl)phenyl]-N-{3-sulfamoyl-4-[3-(trifluoromethyl)-1H-1,2,4-triazol-1-yl]phenyl}acetamide] | 80 | 917 nM
NS(=O)(=O)c1cc(NC(=O)Cc2ccccc2F)ccc1-n1cc(Cl)cn1 [Example 50, N-[4-(4-Chloro-1H-pyrazol-1-yl)-3-sulfamoylphenyl]-2-(2-fluorophenyl)acetamide] | 88 | 149 nM
Nc1cnn(-c2ccc(NC(=O)Cc3ccccc3Cl)cc2S(N)(=O)=O)c1 [Example 505] | 93 | 131 nM
N#Cc1cnn(-c2cc(C(F)(F)F)c(NC(=O)Cc3cc(C(F)(F)F)ccc3Cl)cc2S(N)(=O)=O)c1 [Example 486, 2-[2-Chloro-5-(trifluoromethyl)phenyl]-N-[4-(4-cyano-1H-pyrazol-1-yl)-5-sulfamoyl-2-(trifluoromethyl)phenyl]acetamide] | 71 | 7340 nM
COCc1ncn(-c2ccc(NC(=O)Cc3ccccc3Cl)cc2S(N)(=O)=O)n1 [Example 38, 2-(2-Chlorophenyl)-N-{4-[3-(methoxymethyl)-1H-1,2,4-triazol-1-yl]-3-sulfamoyl-phenyl}acetamide] | 87 | 329 nM
NS(=O)(=O)c1cc(NC(=O)Cc2ccccc2Cl)ccc1-n1cc(C(=O)N2CCCC2)cn1 [Example 442, 2-(2-Chlorophenyl)-N-{4-[4-(pyrrolidin-1-ylcarbonyl)-1H-pyrazol-1-yl]-3-sulfamoylphenyl}acetamide] | 89 | 181 nM
COc1ccccc1CC(=O)Nc1ccc(-c2cnn(C(F)F)c2)c(S(N)(=O)=O)c1 [Example 226, N-{4-[1-(Difluoromethyl)-1H-pyrazol-4-yl]-3-sulfamoylphenyl}-2-(2-methoxyphenyl)-acetamide] | 104 | 111 nM

Structure (SMILES) | Emax [%] | IC50
NS(=O)(=O)c1cc(NC(=O)Cc2ccccc2Cl)ccc1-c1cnn(C2COC2)c1 [Example 373, 2-(2-Chlorophenyl)-N-{4-[1-(oxetan-3-yl)-1H-pyrazol-4-yl]-3-sulfamoylphenyl}-acetamide] | 89 | 167 nM
NS(=O)(=O)c1cc(NC(=O)C(F)(F)c2ccccc2Cl)ccc1-n1cc(Br)cn1 [Example 62, N-[4-(4-Bromo-1H-pyrazol-1-yl)-3-sulfamoylphenyl]-2-(2-chlorophenyl)-2,2-difluoroacetamide] | 94 | 249 nM
NS(=O)(=O)c1c(-c2cnn(C(F)F)c2)ccc(NC(=O)Cc2ccccc2Cl)c1F [Example 493, 2-(2-Chlorophenyl)-N-{4-[1-(difluoromethyl)-1H-pyrazol-4-yl]-2-fluoro-3-sulfamoylphenyl}acetamide] | 90 | 228 nM
NS(=O)(=O)c1cc(NC(=O)Cc2ccccc2Cl)ccc1-c1nccs1 [Example 427, 2-(2-Chlorophenyl)-N-[3-sulfamoyl-4-(1,3-thiazol-2-yl)phenyl]acetamide] | 65 | 72 nM
NS(=O)(=O)c1cc(NC(=O)Cc2ccccc2Cl)ccc1-n1cc2ccncc2n1 [Example 254, 2-(2-Chlorophenyl)-N-[4-(2H-pyrazolo[3,4-c]pyridin-2-yl)-3-sulfamoylphenyl]-acetamide] | 102 | 41 nM
NS(=O)(=O)c1cc(NC(=O)Cc2ccccc2Cl)ccc1-n1cc(CC(F)(F)F)cn1 [Example 518, 2-(2-Chlorophenyl)-N-{3-sulfamoyl-4-[4-(2,2,2-trifluoroethyl)-1H-pyrazol-1-yl]phenyl}acetamide] | 80 | 36 nM
NS(=O)(=O)c1cc(NC(=O)C(O)c2ccccc2Cl)ccc1-n1cc(C(F)(F)F)cn1 (stereo not shown) [Example 498, 2-(2-Chlorophenyl)-2-hydroxy-N-{3-sulfamoyl-4-[4-(trifluoromethyl)-1H-pyrazol-1-yl]phenyl}ethanamide] | 50 | 18200 nM and > 25000 nM
NS(=O)(=O)c1cc(NC(=O)Cc2ccccc2Cl)ccc1-c1cncc(C(=O)N2CCCC2)c1 [Example 366, 2-(2-Chlorophenyl)-N-{4-[5-(pyrrolidin-1-ylcarbonyl)pyridin-3-yl]-3-sulfamoylphenyl}acetamide] | 97 | 128 nM
NS(=O)(=O)c1cc(NC(=O)Cc2cccc(C(F)(F)F)c2Cl)ccc1-c1cnn(C(F)F)c1 [Example 490, 2-[2-Chloro-3-(trifluoromethyl)phenyl]-N-{4-[1-(difluoromethyl)-1H-pyrazol-4-yl]-3-sulfamoylphenyl}acetamide] | 95 | 91 nM
NS(=O)(=O)c1cc(NC(=O)Cc2ccncc2Cl)ccc1-c1cnn(C(F)F)c1 [Example 230, 2-(3-Chloropyridin-4-yl)-N-{4-[1-(difluoromethyl)-1H-pyrazol-4-yl]-3-sulfamoyl-phenyl}acetamide] | 90 | 351 nM
NS(=O)(=O)c1cc(NC(=O)Cc2ccccc2Cl)ccc1-c1cnn(C2CNC2)c1 [Example 271, N-{4-[1-(Azetidin-3-yl)-1H-pyrazol-4-yl]-3-sulfamoylphenyl}-2-(2-chlorophenyl)-acetamide] | 82 | 1150 nM
COc1ccc(CC(=O)Nc2ccc(-c3ccc(Cl)nc3)c(S(N)(=O)=O)c2)cc1 [Example 470, N-[4-(6-Chloropyridin-3-yl)-3-sulfamoylphenyl]-2-(4-methoxyphenyl)acetamide] | 93 | 483 nM
NS(=O)(=O)c1cc(NC(=O)Cc2c(Cl)cccc2Cl)ccc1-n1cc(C(F)(F)F)cn1 [Example 116, 2-(2,6-Dichlorophenyl)-N-{3-sulfamoyl-4-[4-(trifluoromethyl)-1H-pyrazol-1-yl]phenyl}-acetamide] | 75 | 155 nM
NS(=O)(=O)c1cc(NC(=O)Cc2ccccc2Cl)c(F)cc1-c1cnn(C(F)F)c1 [Example 494, 2-(2-Chlorophenyl)-N-{4-[1-(difluoromethyl)-1H-pyrazol-4-yl]-2-fluoro-5-sulfamoylphenyl}acetamide] | 94 | 205 nM
NS(=O)(=O)c1cc(NC(=O)Cc2ccccc2Cl)ccc1-n1ncc2ccccc21 [Example 395, 2-(2-Chlorophenyl)-N-[4-(1H-indazol-1-yl)-3-sulfamoylphenyl]acetamide] | 86 | 73 nM
NS(=O)(=O)c1cc(NC(=O)Cc2ccc(F)cc2)ccc1-n1cc(Cl)cn1 [Example 84, N-[4-(4-Chloro-1H-pyrazol-1-yl)-3-sulfamoylphenyl]-2-(4-fluorophenyl)acetamide] | 29 | > 25000 nM

— US11524938B2, “Aromatic sulfonamide derivatives” (Bayer Pharma Aktiengesellschaft, priority 2016, dated 2022)
